System: Energy system protein genes
Test: DNA chip mRNA expression in yeast, energy system protein genes (Table 4)
Assay type: cell-based, Saccharomyces cerevisiae S288C
How it was run: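 Value is the scanned fluorescence intensity ratio of exposed versus chemical-free cells. Log-phase S288C yeast in YPD at 25° C. received one toxic substance for two hours, dosed to slow growth without killing; Cy3/Cy5-labeled cDNA from oligo-dT-purified mRNA was hybridized to a whole-genome chip at 65° C.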

Na2As [(1)]
The level of expressed mRNA in the presence of chemical substance/The level of expressed mRNA in the absence of chemical substance (yeast gene YJR048W): 1.3
The level of expressed mRNA in the presence of chemical substance/The level of expressed mRNA in the absence of chemical substance (yeast gene YJR121W, cells incubated two hours with the chemical substance): 1.2
The level of expressed mRNA in the presence of chemical substance/The level of expressed mRNA in the absence of chemical substance (yeast gene YJR155W): 7.6
The level of expressed mRNA in the presence of chemical substance/The level of expressed mRNA in the absence of chemical substance (yeast gene YKL016C, cells incubated two hours with the chemical substance): 1.5
The level of expressed mRNA in the presence of chemical substance/The level of expressed mRNA in the absence of chemical substance (yeast gene YKL060C, cells incubated two hours with the chemical substance): 1.7
The level of expressed mRNA in the presence of chemical substance/The level of expressed mRNA in the absence of chemical substance (yeast gene YKL141W, cells incubated two hours with the chemical substance): 1.6
The level of expressed mRNA in the presence of chemical substance/The level of expressed mRNA in the absence of chemical substance (yeast gene YKL148C, cells incubated two hours with the chemical substance): 0.9
The level of expressed mRNA in the presence of chemical substance/The level of expressed mRNA in the absence of chemical substance (yeast gene YKR009C, cells incubated two hours with the chemical substance): 1.0
The level of expressed mRNA in the presence of chemical substance/The level of expressed mRNA in the absence of chemical substance (yeast gene YKR058W, cells incubated two hours with the chemical substance, 25° C., YPD medium): 1.3
The level of expressed mRNA in the presence of chemical substance/The level of expressed mRNA in the absence of chemical substance (yeast gene YKR097W): 1.6
The level of expressed mRNA in the presence of chemical substance/The level of expressed mRNA in the absence of chemical substance (yeast gene YLL041C, cells incubated two hours with the chemical substance): 1.5
The level of expressed mRNA in the presence of chemical substance/The level of expressed mRNA in the absence of chemical substance (yeast gene YLR038C, cells incubated two hours with the chemical substance): 2.6
The level of expressed mRNA in the presence of chemical substance/The level of expressed mRNA in the absence of chemical substance (yeast gene YLR044C, cells incubated two hours with the chemical substance): 0.8
The level of expressed mRNA in the presence of chemical substance/The level of expressed mRNA in the absence of chemical substance (yeast gene YLR134W, cells incubated two hours with the chemical substance): 0.9
The level of expressed mRNA in the presence of chemical substance/The level of expressed mRNA in the absence of chemical substance (yeast gene YLR258W, cells incubated two hours with the chemical substance): 1.7
The level of expressed mRNA in the presence of chemical substance/The level of expressed mRNA in the absence of chemical substance (yeast gene YLR284C, cells incubated two hours with the chemical substance): 0.9
The level of expressed mRNA in the presence of chemical substance/The level of expressed mRNA in the absence of chemical substance (yeast gene YLR295C, cells incubated two hours with the chemical substance, 25° C., YPD medium): 1.5
The level of expressed mRNA in the presence of chemical substance/The level of expressed mRNA in the absence of chemical substance (yeast gene YLR304C, cells incubated two hours with the chemical substance): 0.7
The level of expressed mRNA in the presence of chemical substance/The level of expressed mRNA in the absence of chemical substance (yeast gene YLR345W): 1.4
The level of expressed mRNA in the presence of chemical substance/The level of expressed mRNA in the absence of chemical substance (yeast gene YLR354C, cells incubated two hours with the chemical substance): 1.2
The level of expressed mRNA in the presence of chemical substance/The level of expressed mRNA in the absence of chemical substance (yeast gene YLR377C, cells incubated two hours with the chemical substance): 1.1
The level of expressed mRNA in the presence of chemical substance/The level of expressed mRNA in the absence of chemical substance (yeast gene YLR395C, cells incubated two hours with the chemical substance): 1.8
The level of expressed mRNA in the presence of chemical substance/The level of expressed mRNA in the absence of chemical substance (yeast gene YML087C): 1.8
The level of expressed mRNA in the presence of chemical substance/The level of expressed mRNA in the absence of chemical substance (yeast gene YML120C, cells incubated two hours with the chemical substance): 1.1
The level of expressed mRNA in the presence of chemical substance/The level of expressed mRNA in the absence of chemical substance (yeast gene YML129C, cells incubated two hours with the chemical substance): 1.1
The level of expressed mRNA in the presence of chemical substance/The level of expressed mRNA in the absence of chemical substance (yeast gene YMR073C, cells incubated two hours with the chemical substance): 1.1
The level of expressed mRNA in the presence of chemical substance/The level of expressed mRNA in the absence of chemical substance (yeast gene YMR118C): 1.3
The level of expressed mRNA in the presence of chemical substance/The level of expressed mRNA in the absence of chemical substance (yeast gene YMR205C, cells incubated two hours with the chemical substance): 0.5
The level of expressed mRNA in the presence of chemical substance/The level of expressed mRNA in the absence of chemical substance (yeast gene YMR261C, cells incubated two hours with the chemical substance): 0.8
The level of expressed mRNA in the presence of chemical substance/The level of expressed mRNA in the absence of chemical substance (yeast gene YMR267W, cells incubated two hours with the chemical substance, 25° C., YPD medium): 0.8
The level of expressed mRNA in the presence of chemical substance/The level of expressed mRNA in the absence of chemical substance (yeast gene YMR323W, cells incubated two hours with the chemical substance): 0.8
The level of expressed mRNA in the presence of chemical substance/The level of expressed mRNA in the absence of chemical substance (yeast gene YNL071W): 0.9
The level of expressed mRNA in the presence of chemical substance/The level of expressed mRNA in the absence of chemical substance (yeast gene YNL202W, cells incubated two hours with the chemical substance): 0.7
The level of expressed mRNA in the presence of chemical substance/The level of expressed mRNA in the absence of chemical substance (yeast gene YNL241C): 1.3
The level of expressed mRNA in the presence of chemical substance/The level of expressed mRNA in the absence of chemical substance (yeast gene YNL331C): 8.6
The level of expressed mRNA in the presence of chemical substance/The level of expressed mRNA in the absence of chemical substance (yeast gene YOL086C, cells incubated two hours with the chemical substance): 1.1
The level of expressed mRNA in the presence of chemical substance/The level of expressed mRNA in the absence of chemical substance (yeast gene YOL165C): 10.1
The level of expressed mRNA in the presence of chemical substance/The level of expressed mRNA in the absence of chemical substance (yeast gene YOR142W, cells incubated two hours with the chemical substance): 1.3
The level of expressed mRNA in the presence of chemical substance/The level of expressed mRNA in the absence of chemical substance (yeast gene YOR178C, cells incubated two hours with the chemical substance): 1.4
The level of expressed mRNA in the presence of chemical substance/The level of expressed mRNA in the absence of chemical substance (yeast gene YOR388C, cells incubated two hours with the chemical substance): 1.0
The level of expressed mRNA in the presence of chemical substance/The level of expressed mRNA in the absence of chemical substance (yeast gene YPL031C, cells incubated two hours with the chemical substance): 0.9
The level of expressed mRNA in the presence of chemical substance/The level of expressed mRNA in the absence of chemical substance (yeast gene YPL061W, cells incubated two hours with the chemical substance): 0.4
The level of expressed mRNA in the presence of chemical substance/The level of expressed mRNA in the absence of chemical substance (yeast gene YPL088W): 3.3
The level of expressed mRNA in the presence of chemical substance/The level of expressed mRNA in the absence of chemical substance (yeast gene YPL171C): 15.2
The level of expressed mRNA in the presence of chemical substance/The level of expressed mRNA in the absence of chemical substance (yeast gene YPL240C): 0.7
The level of expressed mRNA in the presence of chemical substance/The level of expressed mRNA in the absence of chemical substance (yeast gene YPL262W, cells incubated two hours with the chemical substance): 1.1
The level of expressed mRNA in the presence of chemical substance/The level of expressed mRNA in the absence of chemical substance (yeast gene YPL275W, cells incubated two hours with the chemical substance): 0.6
The level of expressed mRNA in the presence of chemical substance/The level of expressed mRNA in the absence of chemical substance (yeast gene YPL276W, cells incubated two hours with the chemical substance): 1.2
The level of expressed mRNA in the presence of chemical substance/The level of expressed mRNA in the absence of chemical substance (yeast gene YPR048W, cells incubated two hours with the chemical substance): 1.3
The level of expressed mRNA in the presence of chemical substance/The level of expressed mRNA in the absence of chemical substance (yeast gene YPR184W, cells incubated two hours with the chemical substance): 1.2
